Data taken from article PMC8232704, “Hydrophobic Tagging-Mediated Degradation of Transcription Coactivator SRC-1” (International Journal of Molecular Sciences, 2021).
Bridge positions count the residues as written; N and C are the ends. Square brackets hold non-standard residues; d marks the D form. Peptide text beside a SMILES is read from it. N(1-adamantyl)Gly = O=C(O)CNC12CC3CC(CC(C3)C1)C2; Cha = N[C@@H](CC1CCCCC1)C(=O)O; S5 = C=CCCC[C@](C)(N)C(=O)O; PEG3 = NCCOCCOCCOCCC(=O)O

How the values were obtained:
Serum stability in FBS = format: in vitro ADME, bovine; details: 40 μM in DPBS containing 25% FBS, 37 °C, 0–24 h, LC–MS, normalized to control without FBS
Method: YL2-HyT6 and ND1-YL2 solutions (200 μL, 40 μM in DPBS containing 25% FBS) were incubated at 37 °C for different time periods (0–24 h). For the precipitation of serum proteins, each sample was treated with 100 μL of 15% TFA and incubated at 4 °C overnight. Final samples were then centrifuged at 15,000 rpm for 10 min and filtrated for analysis using LC–MS with a C18 column. The ratio of the remaining compound (%) was calculated by integrating the chromatographic peak of a compound and normalized in comparison with a control sample (incubated without FBS).

[1] = Circular dichroism (CD), calculated helicity; format: physicochemical; details: 50 μM peptide in 30% PBS (pH 7.4) and 70% acetonitrile, calculated from CD spectra
Method: Lyophilized compounds (YL2 and YL2-HyT1 through YL2-HyT6) were dissolved in 30% PBS (pH 7.4) and 70% acetonitrile solution to a final concentration of 50 μM. CD spectra were measured with a Jasco J-815 CD spectropolarimeter using a quartz cuvette (2 mm path length). These spectra were averages of five successive accumulations with a scan rate of 100 nm/min. Raw data were converted in terms of per-residue molar ellipticity (deg·cm^2·dmol^−1·residue^−1) as calculated per mole of amide groups present and normalized by the molar concentration of peptides. Smoothing and correction of background spectra were performed with Origin Pro 8.0 (OriginLab Corporation, Northampton, MA, USA). Then α-helical propensities of YL2 and YL2-HyT1 through YL2-HyT6 were calculated as previously reported.

[2] = test system: E-cadherin mRNA in MDA-MB-231 cells; assay: RT-qPCR of E-cadherin mRNA; format: cell-based, human; details: 18 h, RT-qPCR normalized to 18S
Method: (§1) Quantitative real-time PCR was performed for CSF-1, E-cadherin, and 18S (as a reference gene) mRNAs. MDA-MB-231 cells (1.2 × 10^5 cells/well) were seeded into a 12-well plate and incubated at 37 °C with 5% CO2 for 24 h. These cells were treated with indicated compounds (YL2, adamantane, ND1-YL2, or YL2-HyT6) for 18 h in Opti-MEM medium. After cells were washed with cold DPBS, mRNAs were isolated from these cells using an AccuPrep Universal RNA extraction kit (Bioneer, Daejeon, Korea). Then 1.5 µg of mRNAs were reverse-transcribed using AccuPower RocketScript Cycle RT PreMix (Bioneer) to generate complementary DNAs. RT-qPCR for CSF-1, E-cadherin, and 18S was performed with a StepOnePlus Real-Time PCR System (Applied Biosystems, Waltham, MA, USA) and SYBR Green mix (Applied Biosystems) according to the manufacturer’s instructions with gene-specific primers (Table 1).

[3] = target: T1, SRC-1 in MDA-MB-231 cells (Homo sapiens, UniProt Q15788); assay: Immunoblot analysis of cellular SRC-1 levels (SRC-1 degradation); format: cell-based; details: for SRC-1 (%): normalized to GAPDH and DMSO controls
T1 construct: endogenous in cells; host or cells: MDA-MB-231
Method: MDA-MB-231 and HEK293T cells were cultured in a medium containing Dulbecco’s modified eagle medium (DMEM) supplemented with 1% penicillin–streptomycin (PS) and 10% FBS with 5% CO2 at 37 °C.
MDA-MB-231 cells were seeded into 6-well pates (Corning, 3506) at a density of 6 × 10^5 cell per well. After incubation at 37 °C for 24 h, cells were treated with synthesized compounds in Opti-MEM medium for 12, 18, or 24 h. Cells were washed twice with cold Dulbecco’s phosphate-buffered saline (DPBS) prior to cell lysis using a cell lysis buffer (1% Triton X-100, 150 mM NaCl, 50 mM Tris-HCl pH 7.6, 0.1% SDS, 0.5% sodium deoxycholate, and 1 × protease inhibitor cocktail) on ice. Cell lysates were centrifuged at 13,000 rpm at 4 °C for 15 min. The supernatant was collected, and protein concentration was determined using Pierce^TM 660nm protein assay. A 6 × SDS loading buffer was added to the cell lysate and incubated at 95 °C for 5 min. The same amount of protein was subjected to SDS-PAGE and transferred to PVDF membranes. After blocking membranes with 5% skim milk in TBST (Tris-buffered saline with 0.05% Tween 20), membranes were incubated with a primary antibody at 4 °C overnight. Membranes were then incubated with HRP-linked secondary antibody at rt for 1 h and developed with Pico ECL solution. In MG-132 and 17-AAG treatment experiments, MDA-MB-231 cells were cotreated with synthesized compounds and MG-132 (5 μM) or 17-AAG (1 μM) at 37 °C for 18 h.

MDA-MB-231 cells [4] = assay: Gap closure migration (wound healing) assay; format: cell-based, human; details: 20 µM, 72 h
Method: MDA-MB-231 cells (2.8 × 10^4 cells/well) were seeded into Culture-Insert 2 wells (ibidi, 80209) placed in a 35 mm culture dish. After incubation at 37 °C with 5% CO2 for 24 h, Culture-Insert 2 wells were carefully removed from the culture dish with a sterilized tweezer. These cells were then treated with indicated compounds (YL2, adamantane, ND1-YL2, or YL2-HyT6) in Opti-MEM medium for 72 h. Cell images were obtained with a culture microscope (Olympus, Tokyo, Japan, CKX41). The cell-free area of the image was quantified with ImageJ software (NIH, Bethesda, MD, USA). The relative gap-closure area was calculated using the following equation: […] where A was the cell-free area. (2) Gap−Closure %=At=0 h−At=72 h/At=0 h×100

MDA-MB-231 cells [5] = assay: Cell viability assay (Cyto X); format: cell-based, human; details: 48 h, Opti-MEM
Method: (§2) MDA-MB-231 (1 × 10^4 cells/well) and HEK293T (1 × 10^4 cells/well) cells were seeded into a 96-well plate (Corning, 3595) and incubated at 37 °C with 5% CO2 for 24 h. These cells were then washed twice with DPBS and treated with 1% DMSO or various concentrations of YL2-HyT6 for 48 h in Opti-MEM medium. The remaining cells were then used to measure cell viability using a Cyto X cell viability assay kit (LPS solution, Daejeon, Korea, CYT3000) following the manufacturer’s instruction.

HEK293T cells = assay: Cell viability assay (Cyto X); format: cell-based, human; details: 48 h, Opti-MEM
Method: as §2

[6] = test system: CSF-1 mRNA in MDA-MB-231 cells; assay: RT-qPCR of CSF-1 mRNA; format: cell-based, human; details: 18 h, RT-qPCR normalized to 18S
Method: as §1

T1 sequence (Q15788 whole entry): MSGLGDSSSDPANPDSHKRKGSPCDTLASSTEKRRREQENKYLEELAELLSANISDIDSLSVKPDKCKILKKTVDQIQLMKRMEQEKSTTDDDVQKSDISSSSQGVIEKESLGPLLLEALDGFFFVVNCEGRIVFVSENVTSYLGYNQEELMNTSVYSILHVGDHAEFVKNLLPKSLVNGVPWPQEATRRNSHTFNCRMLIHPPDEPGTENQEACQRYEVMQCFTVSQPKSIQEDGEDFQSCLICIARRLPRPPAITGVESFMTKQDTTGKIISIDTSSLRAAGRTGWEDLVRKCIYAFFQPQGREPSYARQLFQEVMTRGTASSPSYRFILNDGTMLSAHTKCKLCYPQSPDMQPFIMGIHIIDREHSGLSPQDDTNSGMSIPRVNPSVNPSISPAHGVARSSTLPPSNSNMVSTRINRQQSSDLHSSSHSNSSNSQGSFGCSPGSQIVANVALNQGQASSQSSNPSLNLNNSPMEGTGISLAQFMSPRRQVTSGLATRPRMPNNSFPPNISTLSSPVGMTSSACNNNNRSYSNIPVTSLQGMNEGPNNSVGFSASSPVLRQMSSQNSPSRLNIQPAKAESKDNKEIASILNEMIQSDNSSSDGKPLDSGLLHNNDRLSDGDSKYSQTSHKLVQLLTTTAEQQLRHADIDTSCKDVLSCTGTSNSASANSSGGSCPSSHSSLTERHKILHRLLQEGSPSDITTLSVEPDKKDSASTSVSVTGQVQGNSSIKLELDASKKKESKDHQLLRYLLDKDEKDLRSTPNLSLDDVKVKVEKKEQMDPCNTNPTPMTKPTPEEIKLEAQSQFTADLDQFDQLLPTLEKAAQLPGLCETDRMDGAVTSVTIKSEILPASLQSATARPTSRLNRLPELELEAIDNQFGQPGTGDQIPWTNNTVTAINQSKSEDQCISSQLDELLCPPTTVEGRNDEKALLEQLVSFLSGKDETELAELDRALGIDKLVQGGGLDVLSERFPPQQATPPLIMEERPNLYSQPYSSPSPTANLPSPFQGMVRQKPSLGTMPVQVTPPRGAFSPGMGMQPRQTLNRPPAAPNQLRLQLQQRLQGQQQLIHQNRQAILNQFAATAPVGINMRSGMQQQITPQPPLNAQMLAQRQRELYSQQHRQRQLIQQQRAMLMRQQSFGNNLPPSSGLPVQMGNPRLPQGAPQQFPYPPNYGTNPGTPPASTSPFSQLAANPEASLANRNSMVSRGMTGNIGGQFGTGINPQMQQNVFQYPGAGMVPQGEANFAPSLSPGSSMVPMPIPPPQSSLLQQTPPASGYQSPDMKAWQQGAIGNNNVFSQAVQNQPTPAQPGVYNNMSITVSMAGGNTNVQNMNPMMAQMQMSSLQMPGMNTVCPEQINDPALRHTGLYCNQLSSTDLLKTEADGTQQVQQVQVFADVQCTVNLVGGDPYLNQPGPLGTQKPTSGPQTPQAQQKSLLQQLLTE

Helicity (%) [1]: 32.6% | SRC-1 (%) ([3]; MDA-MB-231 cells, 10 μM compound, 18 h): 30% | SRC-1 (%) ([3]; MDA-MB-231 cells, 20 μM compound, 18 h): 20% | Time to recovery of SRC-1 after washing out compound ([3]; MDA-MB-231 cells, 20 μM for 18 h, then washed away): ≤ 12 h | Time-dependent SRC-1 degradation ([3]; MDA-MB-231 cells, 20 μM, various time periods up to 24 h): evidently degraded after 6 h | SRC-1 (%) ([3]; MDA-MB-231 cells, 50 μM compound, 18 h): 13% | DC50 ([3]; MDA-MB-231 cells, 18 h, immunoblot quantitation (Figure S4), three independent experiments, read-out: DC50 (reduction of cellular SRC-1 levels)): ~5 µM
SMILES: CC(C)C[C@H](NC(=O)CCOCCOCCOCCNC(=O)CNC12CC3CC(CC(C3)C1)C2)C(=O)N[C@@H](CC(C)C)C(=O)N1CCC[C@H]1C(=O)N1CCC[C@H]1C(=O)N[C@H](C(=O)N[C@@H](CCC(=O)O)C(=O)N[C@@H](CCC(N)=O)C(=O)N[C@@H](CC(=O)O)C(=O)N[C@@H](CC(C)C)C(=O)N[C@@]1(C)CCC/C=C\CCC[C@@](C)(C(=O)N[C@@H](Cc2ccc(O)cc2)C(N)=O)NC(=O)[C@H](CC2CCCCC2)NC(=O)[C@H](CC(C)C)NC(=O)[C@H](CCCCN)NC1=O)[C@@H](C)O [YL2-HyT6] (H-[N(1-adamantyl)Gly][PEG3]LLPPTEQDL[S5]KL[Cha][S5]Y-NH2; staple (Z) 12-16; C-terminus assumed)
Serum stability (remaining compound) (Serum stability in FBS): improved stability relative to the peptide-based PROTAC (ND1-YL2) | E-cadherin mRNA expression level [2]: increase in E-cadherin | SRC-1 degradation activity compared within YL2-HyT1–6 ([3]; MDA-MB-231 cells, 12, 18 and 24 h): most effective SRC-1 degradation activity at all three time points | SRC-1 levels on cotreatment with Hsp90 inhibitor 17-AAG ([3]; MDA-MB-231 cells, YL2-HyT6 2.5 μM with 17-AAG (1 μM), 18 h): SRC-1 degradation even at a concentration that did not affect SRC-1 levels previously | SRC-1 levels on cotreatment with proteasome inhibitor MG-132 ([3]; MDA-MB-231 cells, cotreated with MG-132 (5 μM), 18 h): SRC-1 levels were not changed in the presence of MG-132 | Wound gap closure (cell migration) (MDA-MB-231 cells [4]): significantly inhibited gap closing | Cell viability (MDA-MB-231 cells [5]): little effect on cell viability | Cell viability (HEK293T cells): little effect on cell viability | CSF-1 mRNA expression level [6]: dose-dependent decrease in CSF-1
